In PMC6920827, “Characterization of the Expression and Functions of Two Odorant-Binding Proteins of Sitophilus zeamais Motschulsky (Coleoptera: Curculionoidea)” (Insects, 2019):
“Also recorded” adds a separate entry of the source. Read-outs that look alike come from different tables or passages of the source.

How the values were obtained:
SzeaOBP1 = SzeaOBP1 (Sitophilus zeamais, UniProt A0A4P9CZ78); assay: Fluorescence competitive binding assay (1-NPN probe) with recombinant SzeaOBP1; details: for binding to SzeaOBP1, in words: fluorescence competitive binding
Method: (§1) Emission fluorescence spectra were recorded on a Fluoromax-4500 fluorescence spectrophotometer (Hitachi, Tokyo, Japan) at room temperature in right-angle configuration, with a 1 cm light-path quartz cuvette and 5 nm slits for both excitation and emission. The protein was dissolved in 50 mM Tris-HCl buffer (pH 7.4), and ligands were added as 1 mM methanol solutions. A methanol solution of N-Phenyl-1-naphthylamine (1-NPN) (1 mM) was used as the fluorescent probe, and chromatography-grade methanol was used as the solvent. For determination of the binding constants of the SzeaOBPs with the probe, the excitation wavelength was set at 337 nm, and the emission wavelength was increased from 370 to 500 nm for scanning. The target SzeaOBP proteins were diluted in Tris-HCl buffer (pH 7.4) to a final concentration of 2 μM. After the sample was added, the fluorescence intensity was allowed to stabilize (approximately 15 s), and the maximum fluorescence intensity was recorded; the binding constant between the protein and probe was determined. This process was repeated three times for each sample. Then, the ligands (odorant standard samples) were diluted with pure methanol for competitive binding analysis. The final concentration of each ligand was […]. The final concentration of ligands in the colorimetric dish increased by 2 μM upon adding the ligands one by one. […] The binding constants between the target SzeaOBP proteins and the ligands were determined. The fluorescence intensity was measured by adding 50 mM Tris-HCl buffer, SzeaOBP protein, and the fluorescence probe 1-NPN to the colorimetric dish for fluorescence measurement. The final concentration was 2 μM. When the fluorescence intensity was stable, the maximum fluorescence intensity was recorded, and then the ligands dissolved in methanol were added to the colorimetric dish one by one. The concentration increased from 2 μM, and the changes in fluorescence intensity were recorded. Each measurement was repeated three times.
(§2) To calculate the binding constants, the fluorescence intensity and ligand concentration were plotted using GraphPad Prism 5. Assuming that 1-NPN binds to the protein at a 1:1 ratio and that the protein was 100% active, the curve was linearized using a Scatchard plot.

SzeaOBP28 = SzeaOBP28 (Sitophilus zeamais, UniProt A0A4V1GPX2); assay: Fluorescence competitive binding assay (1-NPN probe) with recombinant SzeaOBP28; details: for binding to SzeaOBP28, in words: fluorescence competitive binding
Method: as §1, §2

adult S. zeamais = assay: Behavioural experiment in a Y-tube olfactometer, normal adults; format: in vivo, Sitophilus zeamais; details: normal insects, 10 min observation
Method: The behavioral experiments were designed to test the results for selected odorants. The odorant compounds used in behavioral experiments are from Table 1. To avoid the effects of temperature and light on the experiment, the evaluations were performed in a constant temperature and humidity (CTH) room at 28 ± 1 °C and 80% relative humidity under dim light supplied by a red fluorescent tube with no natural lighting. A Y-tube olfactometer system that was previously described by Yusuf and Takabayashi was used to test the attractiveness of different odorant treatments to adult maize weevils. The system comprised a central tube (10 cm long) and two lateral arms (each 15 cm long and 15 mm wide). The angles between the two arms were 75°. Each arm was connected to a glass chamber (200 mL capacity) holding the different odorants. The different parts of the device were connected in the following order: air pump, activated carbon filter, distilled water humidifier, odorant source device, gas flow meter, and Y-tube olfactometer. The parts were connected by Teflon tubes. Airflow through both arms was generated by applying air pressure, and the air was purified using a charcoal-filled gas wash bottle. The airflow through the arms of the Y-tube (150 mL/min/arm) was adjusted by using flow metres, which were positioned between the flasks and the Y-tube. A clean Y-tube was used for each test to avoid carryover of odorants.
Before bioassays, according to the experimental requirements, the odorant source was placed in the odorant source device, which was then ventilated for 15 min so that the odorant filled the tube to ensure accuracy of the test results. The antennae and appendages of the selected insects were verified to be intact, and the insects were confirmed to be active. The insects were introduced from the base of the main arm of the Y-tube olfactometer. The selected odorant was used for the treatment group, and a blank was used for the control group. A single adult S. zeamais insect was introduced into the Y-tube olfactometer at the entrance of the stem, with a maximum observation duration of 10 min per beetle, and the responses were considered positive when the insects reached at least 2 cm along the arm connected to the test chambers. […] Insects were used only once and then discarded. Each odorant was used to test 30 adult maize weevils, and the number of male and female insects per test was the same. Three groups of experiments were repeated for three times.

[1] = calculated from IC50 with K1-NPN 8.590 μM, protein and 1-NPN 2 μM, Tris-HCl pH 7.4, read-out: Ki SzeaOBP1
[2] = displacement of 1-NPN, protein and 1-NPN 2 μM, Tris-HCl pH 7.4, read-out: IC50 SzeaOBP1
[3] = calculated from IC50 with K1-NPN 7.214 μM, protein and 1-NPN 2 μM, Tris-HCl pH 7.4, read-out: Ki SzeaOP28
[4] = displacement of 1-NPN, protein and 1-NPN 2 μM, Tris-HCl pH 7.4, read-out: IC50 SzeaOP28

Sequence of SzeaOBP28 (A0A4V1GPX2 entry or part of it): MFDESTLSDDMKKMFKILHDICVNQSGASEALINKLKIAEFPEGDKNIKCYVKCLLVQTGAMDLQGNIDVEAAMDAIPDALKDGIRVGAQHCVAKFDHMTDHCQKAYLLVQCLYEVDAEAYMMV
Sequence of SzeaOBP1 (A0A4P9CZ78 entry or part of it): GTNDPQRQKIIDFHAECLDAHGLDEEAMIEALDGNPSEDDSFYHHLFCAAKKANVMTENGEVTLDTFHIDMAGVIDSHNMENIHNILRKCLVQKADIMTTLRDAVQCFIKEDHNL

| Ki (SzeaOBP1; [1]) [µM] | IC50 (SzeaOBP1; [2]) [µM] | Ki (SzeaOBP28; [3]) [µM] | IC50 (SzeaOBP28; [4]) [µM] | SMILES | also measured |
| --- | --- | --- | --- | --- | --- |
|  |  |  |  | CCCCCC=O [1-Pentanecarbaldehyde] | IC50 (SzeaOBP1): 6.07 ± 0.154 µM; Ki (SzeaOBP1): 5.18 ± 0.132 µM; IC50 (SzeaOBP28): 59.4 ± 1.21 µM; Ki (SzeaOBP28): 48.7 ± 0.852 µM |
| 4.2 ± 0.087 | 4.92 ± 0.102 | > 49.2 | > 60 | CCC(C)C=O (stereo not drawn) [2-Methylbutyraldehyde] | behavioural response (attraction) of male and female adults vs blank control (adult S. zeamais): Significant differences |
| 6.51 ± 0.163 | 7.62 ± 0.191 | > 49.2 | > 60 | CC(C)CC=O [3-Methylbutanal] |  |
|  |  |  |  | COc1cc(C=O)ccc1O [4-Hydroxy-3-methoxybenzaldehyde] | IC50 (SzeaOBP1): 4.37 ± 0.203 µM; Ki (SzeaOBP1): 3.73 ± 0.173 µM; IC50 (SzeaOBP28): 24.7 ± 2.34 µM; Ki (SzeaOBP28): 20.2 ± 1.92 µM; binding to SzeaOBP28, in words (SzeaOBP28): pronounced binding affinity; behavioural response (attraction) of male and female adults vs blank control (adult S. zeamais): responded strongly; also recorded: stimulated activity in a significantly higher number of normal male and female weevils than the control treatment |
|  |  |  |  | CC(=O)CCC=C(C)C [6-Methyl-5-hepten-2-one] | IC50 (SzeaOBP1): 6.5 ± 0.15 µM; Ki (SzeaOBP1): 5.55 ± 0.128 µM; IC50 (SzeaOBP28): 45.8 ± 1.23 µM; Ki (SzeaOBP28): 37.6 ± 1.01 µM |
| 15.7 ± 0.717 | 18.4 ± 0.84 | > 49.2 | > 60 | CC(=O)O [Acetic acid (glacial)] |  |
|  |  |  |  | O=Cc1ccccc1 [Benzaldehyde] | IC50 (SzeaOBP1): 5.2 ± 0.092 µM; Ki (SzeaOBP1): 4.44 ± 0.079 µM; IC50 (SzeaOBP28): > 60 µM; Ki (SzeaOBP28): > 49.2 µM |
|  |  |  |  | COCCOC(=O)c1ccccc1C(=O)OCCOC [Bis(methylglycol) phthalate, Bis(2-methoxyethyl) phthalate] | IC50 (SzeaOBP1): 4.76 ± 0.147 µM; Ki (SzeaOBP1): 4.07 ± 0.125 µM; IC50 (SzeaOBP28): 38.87 ± 0.2 µM; Ki (SzeaOBP28): 31.86 ± 0.164 µM |
| 2.75 ± 0.139 | 3.22 ± 0.162 | > 49.2 | > 60 | CCCCCCCCCCCCCCCCO [Cetanol] | binding to SzeaOBP1, in words (SzeaOBP1): extremely high binding affinity; behavioural response (attraction) of male and female adults vs blank control (adult S. zeamais): Significant differences |
| > 51.2 | > 60 | > 49.2 | > 60 | CCCCCCCCCC=O [Decanal] | binding to SzeaOBP1, in words (SzeaOBP1): did not bind; binding to SzeaOBP28, in words (SzeaOBP28): did not bind |
| 4.87 ± 0.111 | 5.71 ± 0.13 | > 49.2 | > 60 | CCCCCCC=O [Heptaldehyde] |  |
| 4.67 ± 0.159 | 5.47 ± 0.186 | > 49.2 | > 60 | CCCCCCO [Ligand 1-Hexanol, 1-Hexanol] |  |
|  |  |  |  | c1ccc(Nc2cccc3ccccc23)cc1 [Ligand 1-NPN, N-Phenyl-1-naphthylamine, reference compound] | Kd (SzeaOBP1): 8.59 µM; Kd (SzeaOBP28): 7.21 µM |
| 6.94 ± 0.234 | 8.13 ± 0.274 | > 49.2 | > 60 | CCCCCCCCCO [Ligand 1-Nonanol, 1-Nonanol] |  |
|  |  |  |  | CCCC(C)=O [Ligand 2-Pentanone, 2-Pentanone] | IC50 (SzeaOBP1): 11.6 ± 0.312 µM; Ki (SzeaOBP1): 9.92 ± 0.267 µM; IC50 (SzeaOBP28): > 60 µM; Ki (SzeaOBP28): > 49.2 µM |
| > 51.2 | > 60 | > 49.2 | > 60 | CCCCC/C=C\C/C=C\CCCCCCCC(=O)O [Linoleic acid] | binding to SzeaOBP1, in words (SzeaOBP1): did not bind; binding to SzeaOBP28, in words (SzeaOBP28): did not bind |
| 5.28 ± 0.333 | 6.18 ± 0.39 | > 49.2 | > 60 | Cc1occc(=O)c1O [Maltol (3-hydroxy-2-methyl-4-pyrone)] |  |
| 30.3 ± 0.798 | 35.5 ± 0.931 | > 49.2 | > 60 | C=CC(=C)CCC=C(C)C [Myrcene (stabilized with BHT)] |  |
| > 51.2 | > 60 | > 49.2 | > 60 | CCCCCCCCCCCCCCCC [N-Hexadecane, N-hexadecane] |  |
| 4.42 ± 0.095 | 5.18 ± 0.111 | 48.2 ± 1.1 | 58.9 ± 1.34 | CCCCCCCCC=O [Nonanal] |  |
| 24.2 ± 1.78 | 28.3 ± 2.08 | 40.8 ± 1.41 | 49.7 ± 1.72 | CCCCCCCCCCCCCCCC(=O)O [Palmitic Acid, Palmitic acid] |  |
| > 51.2 | > 60 | > 49.2 | > 60 | CCCCCCCCCCCCCCC [Pentadecane] |  |
| 4.88 ± 0.103 | 5.71 ± 0.121 | > 49.2 | > 60 | CCCCC=O [Valeraldehyde] | behavioural response (attraction) of male and female adults vs blank control (adult S. zeamais): responded strongly |

| SMILES | Ki (SzeaOBP1; [1]) [µM] | IC50 (SzeaOBP1; [2]) [µM] | Ki (SzeaOBP28; [3]) [µM] | IC50 (SzeaOBP28; [4]) [µM] | also measured |
| --- | --- | --- | --- | --- | --- |
| CC1=CC[C@@H]2C[C@H]1C2(C)C [(+)-a-Pinene] | > 51.2 | > 60 | > 49.2 | > 60 | binding to SzeaOBP1, in words (SzeaOBP1): did not bind; binding to SzeaOBP28, in words (SzeaOBP28): did not bind |
| CC(C)=O [Acetone] | 4.54 ± 0.172 | 5.32 ± 0.201 | 39.8 ± 0.731 | 48.6 ± 0.861 |  |
| CCCCCCCCO [Capryl alcohol] | 6.67 ± 0.199 | 7.81 ± 0.233 | > 49.2 | > 60 |  |
| CC(C)C=O [Isobutyraldehyde] | 4.26 ± 0.138 | 4.99 ± 0.162 | > 49.2 | > 60 |  |
| CCCCCCCC=O [n-Octanaldehyde] | 3.22 ± 0.103 | 3.77 ± 0.12 | > 49.2 | > 60 | behavioural response (attraction) of male and female adults vs blank control (adult S. zeamais): no obvious effect |
